Results on 13 compounds are retold here after PubChem BioAssay (NCI).

Structures are written as SMILES.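 Where inhibition never reached the appropriate level, the endpoint shown equals the highest concentration tested. Otherwise, values were interpolated linearly from a five-concentration, 48-hour dose response in 96-well plates. The concentration for full growth arrest is given as TGI.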 Bounds are passed on as bounds.

Experiment in all cases: NCI tumour cell line growth inhibition, 48 h
In assay [1] the test system is CCRF-CEM leukemia.
In assay [2] the test system is COLO 205 colon.
The test system of assay [3] is HL-60(TB) leukemia.
In assay [4] the test system is HT29 colon.
For assay [5], the system named is IGROV1 ovarian.
In assay [6] the test system is K-562 leukemia.
In assay [7] the test system is MDA-MB-231 breast.
Assay [8] has as its system MDA-MB-435.
Assay [9] has as its system MOLT-4 leukemia.
For assay [10], the system named is OVCAR-8 ovarian.
Assay [11] concerns SN12C renal.
For assay [12], the system named is SNB-19 CNS.
The test system of assay [13] is U251 CNS.
The test system of assay [14] is UO-31 renal.
Assay [15] concerns MALME-3M melanoma.
Assay [16] concerns NCI-H522 lung.
Assay [17] concerns TK-10 renal.
The test system of assay [18] is OVCAR-4 ovarian.

For the compound `C[C@H]1[C@H](C)CC[C@]2(C)CC[C@]3(C)C(=C[C@@H](O)[C@@H]4[C@@]5(C)[C@H](O)[C@@H](O)[C@H](O)C(C)(C)[C@@H]5CC[C@]43C)[C@H]12`, the TGI in [1], in assay [2], in assay [3], in assay [4], in [5] and in [6] was greater than 100 µM each time. Besides, the TGI in assay [7], in assay [8], in assay [9], in [10], in assay [11] and in [12] was greater than 100 µM each time. Also, the TGI in assay [13] and in assay [14] was greater than 100 µM each time.

In the case of `CC1=NC(=Cc2ccc(O)cc2)C(=O)N1n1c(-c2ccccc2)nc2ccccc2c1=O`, the TGI in [1], in assay [2], in [3], in assay [4], in assay [5] and in [6] was greater than 100 µM in each case. The TGI in assay [15], in assay [7], in assay [8], in assay [9], in assay [16] and in assay [10] was greater than 100 µM throughout. Also, the TGI in assay [11], in assay [12], in assay [17] and in [14] was greater than 100 µM throughout.

For the compound `CCN1c2nc3ccccc3nc2N(CC)c2nc3ccccc3nc21`, the TGI in assay [1], in [2], in [3], in assay [4], in [5] and in [6] was greater than 100 µM in each case. In addition, the TGI in assay [15], in assay [7], in assay [8], in [9], in assay [16] and in assay [10] was greater than 100 µM each time. Besides, the TGI in assay [11], in assay [12], in [17], in [13] and in assay [14] was greater than 100 µM throughout.

Take `CC(=O)Oc1ccccc1-c1cc2ccccc2oc1=O`: the TGI in assay [1], in assay [2], in [3], in assay [4], in assay [6] and in assay [15] was greater than 100 µM in each case. Also, the TGI in assay [7], in assay [8], in [9], in [16], in [10] and in [11] was greater than 100 µM throughout. Further, the TGI in assay [12] and in assay [14] was greater than 100 µM throughout.

Turning to `CCOC(=O)c1nc2c(Cl)c3ncccc3cc2[nH]c1=O`, the TGI in [1], in assay [2], in [3], in [4], in assay [5] and in assay [6] was greater than 100 µM each time. Moreover, the TGI in assay [15] was greater than 100 µM; in assay [7], greater than 100 µM; in [8], greater than 100 µM; in assay [9] it was 45.6 µM; in [16] it was greater than 100 µM; in [18], greater than 100 µM. The TGI in [10], in assay [12], in assay [17], in assay [13] and in assay [14] was greater than 100 µM throughout.

Regarding `COc1ccc2c(c1C)C(=O)C(O)(CC=C(C)C)O2` (stereo not given), the TGI in [1], in [2], in assay [3], in assay [4], in assay [5] and in assay [6] was greater than 100 µM each time. For the same compound, the TGI in assay [15], in assay [7], in assay [8], in [9], in [16] and in assay [10] was greater than 100 µM each time. Moreover, the TGI in assay [11], in assay [12], in [17], in [13] and in assay [14] was greater than 100 µM each time.

Regarding `Cc1cccc2c1Oc1cc(Cl)ccc1C2NC(=O)CCN1CCOCC1` (stereo not given), the TGI in [1], in assay [2], in [3], in assay [4], in assay [5] and in [6] was greater than 100 µM in each case. For the same compound, the TGI in [7], in [8], in assay [9], in [16], in assay [18] and in [10] was greater than 100 µM throughout. In addition, the TGI in assay [11], in assay [12], in assay [17], in [13] and in assay [14] was greater than 100 µM each time.

With `CC(=O)N(C(=O)CC(=O)N/N=C\c1ccc(Br)c(N(CCC#N)CCC#N)c1)c1ccc(Cl)cc1`, the TGI in assay [1], in assay [2], in assay [3], in assay [5], in assay [6] and in assay [15] was greater than 100 µM in each case. In addition, the TGI in [7], in assay [8], in [9], in assay [10], in [11] and in assay [12] was greater than 100 µM throughout. Also, the TGI in [17], in [13] and in assay [14] was greater than 100 µM in each case.

For `N#Cc1c(-c2ccccc2)[nH]c2ccccc2c1=O`, the TGI in [1], in assay [2], in assay [3], in [4], in [5] and in assay [6] was greater than 100 µM in each case. The TGI was greater than 100 µM in [15]; greater than 100 µM in [7]; 59.2 µM in [8]; greater than 100 µM in assay [9]; greater than 100 µM in assay [18]; greater than 100 µM in assay [10]. In addition, the TGI in assay [11] was greater than 100 µM; in assay [12], 74.9 µM; in assay [17], 97.8 µM.

Regarding `COc1cccc(CCn2c(N)c(-c3ccccc3)c3ccc([N+](=O)[O-])cc3c2=O)c1`, the TGI in assay [1] is 43 µM; in assay [2], 5.93 µM; in assay [3], 27.3 µM; in [4], 27.4 µM; in assay [5], 23.4 µM; in assay [6] it was 21 µM. Also, the TGI in [15] was 33.6 µM; in [7], 29.6 µM; in assay [8], greater than 67.1 µM; in assay [9] it was 49.5 µM; in assay [16] it was 9.37 µM; in assay [10], 4.45 µM. Besides, the TGI is 1.53 µM in [11]; 41 µM in assay [12]; 5.31 µM in assay [17]; 36.5 µM in [13]; 27.2 µM in [14].

For the compound `Cc1cccc2c1[C@]13OC(C)[C@]4(C)CC5OC(=O)[C@@]1(C)[C@@H]5[C@]34C(=O)O2` (stereo not given in full), the TGI in [1], in [2], in assay [3], in assay [4], in assay [5] and in assay [6] was greater than 100 µM in each case. Moreover, the TGI in [15], in [7], in [8], in assay [9], in [16] and in [10] was greater than 100 µM throughout. Besides, the TGI in assay [11], in [12], in [17], in [13] and in assay [14] was greater than 100 µM each time.

For the compound `CN1CCOC1(C)CO` (stereo not given), the TGI in assay [1], in assay [2], in assay [3], in [4], in [5] and in assay [6] was greater than 100 µM throughout. The TGI in assay [15], in assay [7], in [8], in assay [9], in assay [16] and in assay [18] was greater than 100 µM each time. Also, the TGI in [10], in assay [12], in assay [17], in [13] and in [14] was greater than 100 µM throughout.

For `CCC1OC2C(CC=C(C)C)=C3OC(C)(O)C(C)(CC)C(OC(=O)c4ccccc4)C3=C3OC(=O)C=C1C32` (stereo not given), the TGI in assay [1] is greater than 100 µM; in assay [2], 39.8 µM; in [3], greater than 100 µM; in assay [4], greater than 100 µM; in assay [5], greater than 100 µM; in [6], greater than 100 µM. For the same compound, the TGI was greater than 100 µM in assay [15]; 49.1 µM in assay [7]; greater than 100 µM in [8]; greater than 100 µM in [9]; 47.6 µM in assay [16]; greater than 100 µM in assay [10]. The TGI was 79 µM in assay [11]; 94.6 µM in assay [12]; greater than 100 µM in assay [17]; greater than 100 µM in assay [13]; greater than 100 µM in assay [14].
